According to publication PMC8122671, “New Succinimides with Potent Anticancer Activity: Synthesis, Activation of Stress Signaling Pathways and Characterization of Apoptosis in Leukemia and Cervical Cancer Cells” (International Journal of Molecular Sciences, 2021):
Entries after “also recorded” stand apart in the source; their conditions may differ. Where a name gives a salt, the structure may show the parent alone. Read-outs that look alike come from different tables or passages of the source.

How the values were obtained:
[1] = test system: K562 (myelogenous leukemia cell line); assay: MTT cytotoxicity assay, K562; assay type: cell-based, human; settings: 48 h incubation, average (SD) of three experiments, read-out: IC50 K562
Description: (§1) The cytotoxicity of new derivatives of dicarboximides was tested in HeLa (cervix carcinoma cell line), K562 (myelogenous leukemia cell line), MOLT-4 (Human T-Lymphoid Cell Line), and HUVEC (normal endothelial) cells. First, the viability of cells was determined after 48 h incubation with the screened compounds used at the concentration of 100 μM (data not shown). […] Cells exposed to 1% DMSO (as vehicle) served as the control with 100% survival.
(§2) Human umbilical vein endothelial cells (Life Technologies, Carlsbad, CA, USA) were cultured (according to the manufacturer’s instructions) in Medium 200 containing low serum growth supplement; 1 × 10^4 cells were seeded on each well on a 96-well plate (Nunc, Roskilde, Denmark). The HeLa (human cervix carcinoma), K562, and MOLT-4 (leukemia) cells were cultured in RPMI 1640 medium supplemented with antibiotics and 10% fetal calf serum in a 5% CO2–95% air atmosphere; 7 × 10^3 cells were seeded on each well on a 96-well plate (Nunc). Twenty-four hours later, cells were exposed to the test compounds for additional 48 hours. Stock solutions of test compounds were freshly prepared in DMSO. The final concentrations of the compounds tested in the cell cultures were 2 × 10^−1, 1 × 10^−1, 5 × 10^−2, 1 × 10^−2, 1 × 10^−3, and 1 × 10^−4 mM. The concentration of DMSO in the cell culture medium was 1%. The values of IC50 (the concentration of test compound required to reduce the cell survival fraction to 50% of the control) were calculated from dose–response curves and used as a measure of cellular sensitivity to a given treatment. The cytotoxicity of all compounds was determined by the MTT [3-(4,5-dimethylthiazol-2-yl)-2,5-diphenyltetrazolium bromide; Sigma, St. Louis, MO, USA] assay. Briefly, after 24 or 48 h of incubation with drugs, the cells were treated with the MTT reagent, and incubation was continued for 2 h. MTT-formazan crystals were dissolved in 20% SDS and 50% DMF at pH 4.7, and absorbance was read at 570 and 650 nm on a microplate reader FLUOstar Omega (BMG Labtech, Offenburg, Germany). As a control (100% viability), we used cells grown in the presence of the vehicle (1% DMSO) only.

[2] = test system: HUVEC (normal endothelial) cells; assay: MTT cytotoxicity assay, HUVEC; assay type: cell-based; settings: Homo sapiens, read-out: IC50 HUVEC
Description: as §1, §2

[3] = test system: HeLa (human cervix carcinoma) cells; assay: MTT cytotoxicity assay, HeLa; assay type: cell-based; settings: 48 h incubation, average (SD) of three experiments, read-out: IC50 HeLa
Description: as §1, §2

[4] = test system: MOLT-4 (Human T-Lymphoid Cell Line); assay: MTT cytotoxicity assay, MOLT-4; assay type: cell-based; settings: read-out: IC50 MOLT-4
Description: as §1, §2

[5] = test system: caspase 3/7 in K562 cells; assay: Caspase-3/7 activity assay (Apo-ONE) in K562 cells; assay type: cell-based, human; settings: K562, 18 h, test compound at 5xIC50, staurosporine 1 μM; vs 1% DMSO
Description: After incubation for 18 h, K562 cells were lysed and the activity of caspase 3/7 was measured using a profluorescent peptide substrate.
First, 20 × 10^3 K562 cells were seeded on each well of a 96-well plate in RPMI 1640 medium supplemented with 10% fetal calf serum and antibiotics. Cells were grown for 24 h at 37 °C and 5% CO2. Test dicarboximides were dissolved in DMSO and added to cell culture to the final concentration of 5 × IC50. […] Cells were exposed to test compounds for 18 h at 37 °C and 5% CO2. Subsequently, the activity of caspase 3 and 7 was measured by Apo-ONE® Homogeneous Caspase-3/7 Assay (Promega, Madison, WI, USA) according to the manufacturer’s instructions. Briefly, the cells were lysed and incubated for 1.5 h with a profluorescent substrate for caspase 3 and 7. Next, the fluorescence was read at an excitation wavelength of 485 nm and emission of 520 nm with a FLUOStar Omega microplate reader (BMG-Labtech, Offenburg, Germany).

[6] = test system: plasmid DNA (pcDNA3.1HisC); assay: DNA-cleavage protection assay (BamHI digestion of plasmid DNA); assay type: biochemical; settings: 100 µM, overnight 37 °C, then BamHI 3 h
Description: A DNA-cleavage protection assay has been successfully used for the identification of compounds that bind DNA either covalently or noncovalently. Such binding may result in DNA being less susceptible to enzymatic cleavage. […] It was also reported that naphtalenoimides or indolomaleimides intercalate into DNA [13, 14]. […] In CD studies, a synthetic 23-nt duplex DNA or bovine thymus DNA was incubated with compound Ic or daunorubicin (reference compound). […] Using a DNA-cleavage protection assay, we investigated whether selected compounds 2c, 2d, and 2f and 3c, 3d, and 3f interact with a plasmid DNA, resulting in increased resistance to endonucleolytic cleavage. Plasmid DNA (pcDNA3.1HisC) containing a single BamHI cleavage site was incubated with test compounds and subsequently digested with BamH1 restriction endonuclease. Daunorubicin (a strong DNA-intercalating agent) was used as a reference compound. Non-digested plasmid DNA existed predominantly in the circular form; however, the superhelical and linear forms were also detected (Figure 5, lane 1). […] This observation can be explained by the higher lipophilicity of 3c, 3d, and 3f compared to 2c, 2d, and 2f, which may facilitate their more efficient binding to DNA.
First, 0.5 μg of plasmid DNA (pcDNAHisC, total length 5.5 kbp) containing a unique BamHI restriction site was dissolved in a 1× BamHI reaction buffer and incubated overnight at 37 °C with the test compounds or daunorubicin. Daunorubicin, a strong intercalating agent, was used as a positive control. The concentration of the test compounds and daunorubicin samples was 100 µM. In the next step, the reaction mixtures were digested with BamHI restriction endonuclease (2 U/μL) for 3 h at 37 °C. The total reaction volume was 10 μL. Products of the reaction were subjected to the 1% agarose gel electrophoresis in TBE buffer. The gel was stained with ethidium bromide, and DNA fragments were visualized under a UV lamp (GBox, Syngene).

[7] = MTT cytotoxicity assay, cancer cell lines taken together (HeLa, K562, MOLT-4); assay type: cell-based; settings: human, K562 and MOLT-4 cancer cells
Description: The cytotoxicity of new derivatives of dicarboximides was tested in HeLa (cervix carcinoma cell line), K562 (myelogenous leukemia cell line), MOLT-4 (Human T-Lymphoid Cell Line), and HUVEC (normal endothelial) cells. First, the viability of cells was determined after 48 h incubation with the screened compounds used at the concentration of 100 μM (data not shown). For compounds that reduced the viability of cancer cells by more than 50%, the IC50 values were determined (Table 2). Cells exposed to 1% DMSO (as vehicle) served as the control with 100% survival.
Human umbilical vein endothelial cells (Life Technologies, Carlsbad, CA, USA) were cultured (according to the manufacturer’s instructions) in Medium 200 containing low serum growth supplement; 1 × 10^4 cells were seeded on each well on a 96-well plate (Nunc, Roskilde, Denmark). […] The cytotoxicity of all compounds was determined by the MTT [3-(4,5-dimethylthiazol-2-yl)-2,5-diphenyltetrazolium bromide; Sigma, St. Louis, MO, USA] assay. […] MTT-formazan crystals were dissolved in 20% SDS and 50% DMF at pH 4.7, and absorbance was read at 570 and 650 nm on a microplate reader FLUOstar Omega (BMG Labtech, Offenburg, Germany). […]

[8] = 48 h incubation, average (SD) of three experiments
[9] = MOLT-4, 48 h incubation, average (SD) of three experiments

Row | melting point [°C] | SMILES | IC50 ([1]; Homo sapiens, K562, 48 h) [µM] | IC50 [2, 8] [µM] | IC50 [3] [µM] | IC50 [4, 9] [µM] | also measured
1 | 197 to 198 | O=C1C2C(C(=O)N1CCO)C1(c3ccccc3)CC2(c2ccccc2)C(c2ccccc2)=C1c1ccccc1 (centres unmarked) [compound 5, 4-(2-hydroxyethyl)-1,7,8,9-tetraphenyl-4-azatricyclo[5.2.1.02,6]dec-8-ene-3,5-dione] | 6.2 | 0.7 | 8 | 2.1 | 
2 | 186 to 187 | CC12C(=O)C(C)(C(c3ccccc3)=C1c1ccccc1)C1C(=O)N(CCO)C(=O)C12 (centres unmarked) [compound 4, 4-(2-hydroxyethyl)-1,7-dimethyl-8,9-diphenyl-4-azatricyclo[5.2.1.0^2,6]dec-8-ene-3,5,10-trione] | 105 | 56 | 61 | 71 | 
3 |  | O=C1C2C(C(=O)N1CC(O)CN1CCCCC1)C1(c3ccccc3)CC2(c2ccccc2)C(c2ccccc2)=C1c1ccccc1 (centres unmarked) [3f, 4-[2-hydroxy-3-(piperidin-1-yl)propyl]-1,7,8,9-tetraphenyl-4-azatricyclo[5.2.1.0^2,6]dec-8-ene-3,5-dione] | < 6 | 0.4 | 3 | 3 | activity of caspase 3/7 [5]: activated caspase 3/7 to a lesser extent; also recorded: activated caspase 3 and 7; IC50 [1]: 3 µM; protection of plasmid DNA from BamHI digestion (circular DNA left) [6]: interaction seems to be stronger
4 | 237 to 238 | CCCCN(CCCC)CC(O)CN1C(=O)C2C(C1=O)C1(c3ccccc3)CC2(c2ccccc2)C(c2ccccc2)=C1c1ccccc1 (centres unmarked) (as salt: HCl) [3e, 4-[3-(dibutylamino)-2-hydroxypropyl]-1,7,8,9-tetraphenyl-4-azatricyclo[5.2.1.0^2,6]dec-8-ene-3,5-dione] |  |  |  |  | 
5 | 192 to 196 | CCCCN(CCCC)CC(O)CN1C(=O)C2C(C1=O)C1(C)C(=O)C2(C)C(c2ccccc2)=C1c1ccccc1 (centres unmarked) (as salt: HCl) [1e, 4-[3-(dibutylamino)-2-hydroxypropyl]-1,7-dimethyl-8,9-diphenyl-4-azatricyclo [5.2.1.0^2,6]dec-8-ene-3,5,10-trione] |  |  |  |  | 
6 |  | CN[C@@H]1C[C@H]2O[C@@](C)([C@@H]1OC)n1c3ccccc3c3c4c(c5c6ccccc6n2c5c31)C(=O)NC4 [staurosporine, reference compound] |  |  |  |  | activity of caspase 3/7 [5]: strongly activated caspase 3/7; viability at 48 h, 1 µM [7]: 44 to 49%
7 | 190 to 195 | CCC12C(=O)C(CC)(C(c3ccccc3)=C1c1ccccc1)C1C(=O)N(CC(O)CN3CCCCC3)C(=O)C12 (centres unmarked) (as salt: HCl) [2f, 4-[2-hydroxy-3-(piperidin-1-yl)propyl]-1,7-diethyl-8,9-diphenyl-4-azatricyclo[5.2.1.0^2,6]dec-8-ene-3,5,10-trione] |  |  |  |  | 
8 |  | CCC12C(=O)C(CC)(C(c3ccccc3)=C1c1ccccc1)C1C(=O)N(CC(O)CN3CCCCC3)C(=O)C12 (centres unmarked) [2f, 4-[2-hydroxy-3-(piperidin-1-yl)propyl]-1,7-diethyl-8,9-diphenyl-4-azatricyclo[5.2.1.0^2,6]dec-8-ene-3,5,10-trione] | < 6 | 3.1 | 5.1 | 3.4 | activity of caspase 3/7 [5]: over eight-fold increase in caspase activity; also recorded: activated caspase 3 and 7; IC50 [1]: 3.9 µM; protection of plasmid DNA from BamHI digestion (circular DNA left) [6]: the circular form was also detected
9 |  | COc1cccc2c1C(=O)c1c(O)c3c(c(O)c1C2=O)C[C@@](O)(C(C)=O)C[C@@H]3O[C@H]1C[C@H](N)[C@H](O)[C@H](C)O1 [daunorubicin, reference compound] |  |  |  |  | protection of plasmid DNA from BamHI digestion (circular DNA left) [6]: prevented linearization of DNA
10 | 227 to 228 | CC12C(=O)C(C)(C(c3ccccc3)=C1c1ccccc1)C1C(=O)N(CCN3CCOCC3)C(=O)C12 (centres unmarked) (as salt: HCl) [1j, 4-[2-(morpholin-4-yl)ethy]-1,7-dimethyl-8,9-diphenyl-4-azatricyclo[5.2.1.0^2,6]dec-8-ene-3,5,10-trione] |  |  |  |  | 
11 | 170 to 171 | CC12C(=O)C(C)(C(c3ccccc3)=C1c1ccccc1)C1C(=O)N(CC(O)CN3CCCCC3)C(=O)C12 (centres unmarked) (as salt: HCl) [1f, 4-[2-hydroxy-3-(piperidin-1-yl)propyl]-1,7-dimethyl-8,9-diphenyl-4-azatricyclo[5.2.1.0^2,6]dec-8-ene-3,5,10-trione] |  |  |  |  | 

Row | SMILES | melting point [°C] | IC50 ([1]; Homo sapiens, K562, 48 h) [µM] | IC50 [2, 8] [µM] | IC50 [3] [µM] | IC50 [4, 9] [µM] | also measured
12 | CC12C(=O)C(C)(C(c3ccccc3)=C1c1ccccc1)C1C(=O)N(CCCl)C(=O)C12 (centres unmarked) [1h, 4-(2-chloroethyl)-1,7-dimethyl-8,9-diphenyl-4-azatricyclo[5.2.1.0^2,6]dec-8-ene-3,5,10-trione] | 190 to 191 |  |  |  |  | IC50 ([2]; 48 h): 64 µM; IC50 ([4]; MOLT-4, 48 h): 20 µM
